Experimental data from ChEMBL document CHEMBL1201861, “Genomics of Drug Sensitity in Cancer screening data, Wellcome Trust Sanger Institute”.

Assays:
Assay in all cases: cells
[1] = test system: SNU1; assay type: functional, cell-based, Homo sapiens; conditions: Homo sapiens, SNU1;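 note: growth inhibition of human NCI-SNU-1 cells, measured with a cell viability assay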
Description: SANGER: Inhibition of human NCI-SNU-1 cell growth in a cell viability assay.

[2] = test system: BE-13; assay type: functional, cell-based, Homo sapiens; conditions: Homo sapiens, BE-13;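 note: growth inhibition of human BE-13 cells, measured with a cell viability assay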
Description: SANGER: Inhibition of human BE-13 cell growth in a cell viability assay.

[3] = test system: TE-1; assay type: functional, cell-based, Homo sapiens; conditions: Homo sapiens, TE-1;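 note: growth inhibition of the human TE-1 cell line, read out with a cell viability assay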
Description: SANGER: Inhibition of human TE-1 cell growth in a cell viability assay.

[4] = test system: EW-3; assay type: functional, cell-based, Homo sapiens; conditions: Homo sapiens, EW-3;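 note: cell viability assay read-out, IC50 reflects inhibition of growth of the EW-3 cells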
Description: SANGER: Inhibition of human EW-3 cell growth in a cell viability assay.

[5] = test system: KP-N-YS; assay type: functional, cell-based, Homo sapiens; conditions: Homo sapiens, KP-N-YS;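 note: cell viability assay measuring inhibition of cell line growth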
Description: SANGER: Inhibition of human KP-N-YS cell growth in a cell viability assay.

[6] = test system: MEG-01; assay type: functional, cell-based, Homo sapiens; conditions: Homo sapiens, MEG-01;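 note: growth inhibition of MEG-01 cells, read out by a cell viability assay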
Description: SANGER: Inhibition of human MEG-01 cell growth in a cell viability assay.

[7] = test system: BT-474; assay type: functional, cell-based, Homo sapiens; conditions: Homo sapiens, BT-474
Description: SANGER: Inhibition of human BT-474 cell growth in a cell viability assay.

[8] = test system: MFM-223; assay type: functional, cell-based, Homo sapiens; conditions: Homo sapiens, MFM-223
Description: SANGER: Inhibition of human MFM-223 cell growth in a cell viability assay.

[9] = test system: COR-L88; assay type: functional, cell-based, Homo sapiens; conditions: Homo sapiens, COR-L88;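 note: growth inhibition of COR-L88 cells, read out with a cell viability assay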
Description: SANGER: Inhibition of human COR-L88 cell growth in a cell viability assay.

[10] = test system: MZ2-MEL; assay type: functional, cell-based, Homo sapiens; conditions: Homo sapiens, MZ2-MEL;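 note: growth inhibition of MZ2-MEL cells read out with a cell viability assay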
Description: SANGER: Inhibition of human MZ2-MEL cell growth in a cell viability assay.

[11] = test system: LAN-6; assay type: functional, cell-based, Homo sapiens; conditions: Homo sapiens, LAN-6;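 note: growth inhibition of LAN-6 cells, determined with a cell viability assay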
Description: SANGER: Inhibition of human LAN-6 cell growth in a cell viability assay.

[12] = test system: D-502MG; assay type: functional, cell-based, Homo sapiens; conditions: Homo sapiens, D-502MG
Description: SANGER: Inhibition of human D-502MG cell growth in a cell viability assay.

[13] = test system: DMS-114; assay type: functional, cell-based, Homo sapiens; conditions: Homo sapiens, DMS-114
[14] = test system: JAR; assay type: functional, cell-based, Homo sapiens; conditions: Homo sapiens, JAR;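 note: growth inhibition of human JAR cells determined with a cell viability assay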
Description: SANGER: Inhibition of human JAR cell growth in a cell viability assay.

[15] = test system: HT; assay type: functional, cell-based, Homo sapiens; conditions: Homo sapiens, HT
Description: SANGER: Inhibition of human HT cell growth in a cell viability assay.

[16] = test system: SK-NEP-1; assay type: functional, cell-based, Homo sapiens; conditions: Homo sapiens, SK-NEP-1;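 note: growth inhibition of human SK-NEP-1 cells, read out by a cell viability assay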
Description: SANGER: Inhibition of human SK-NEP-1 cell growth in a cell viability assay.

[17] = test system: OMC-1; assay type: functional, cell-based, Homo sapiens; conditions: Homo sapiens, OMC-1;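 note: growth inhibition of the OMC-1 cell line, measured by a cell viability assay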
Description: SANGER: Inhibition of human OMC-1 cell growth in a cell viability assay.

[18] = test system: SK-UT-1; assay type: functional, cell-based, Homo sapiens; conditions: Homo sapiens, SK-UT-1;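 note: growth inhibition of SK-UT-1 cells, measured by a cell viability assay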
Description: SANGER: Inhibition of human SK-UT-1 cell growth in a cell viability assay.

[19] = test system: U-87 MG; assay type: functional, cell-based, Homo sapiens, U-87MG ATCC; conditions: Homo sapiens, U-87 MG;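 note: growth inhibition of the cells measured with a viability assay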
Description: SANGER: Inhibition of human U-87-MG cell growth in a cell viability assay.

[20] = test system: NKM-1; assay type: functional, cell-based, Homo sapiens; conditions: Homo sapiens, NKM-1;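 note: growth inhibition of NKM-1 cells, read out with a cell viability assay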
Description: SANGER: Inhibition of human NKM-1 cell growth in a cell viability assay.

[21] = test system: SW872; assay type: functional, cell-based, Homo sapiens; conditions: Homo sapiens, SW872;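 note: growth inhibition of SW872 cells, read out by a viability assay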
Description: SANGER: Inhibition of human SW872 cell growth in a cell viability assay.

[22] = test system: IST-SL1; assay type: functional, cell-based, Homo sapiens; conditions: Homo sapiens, IST-SL1;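 note: growth inhibition of human IST-SL1 cells, read out with a cell viability assay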
Description: SANGER: Inhibition of human IST-SL1 cell growth in a cell viability assay.

[23] = test system: L-363; assay type: functional, cell-based, Homo sapiens; conditions: Homo sapiens, L-363
Description: SANGER: Inhibition of human L-363 cell growth in a cell viability assay.

[24] = test system: DJM-1; assay type: functional, cell-based, Homo sapiens; conditions: Homo sapiens, DJM-1;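 note: growth inhibition of human DJM-1 cells, read out by a cell viability assay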
Description: SANGER: Inhibition of human DJM-1 cell growth in a cell viability assay.

[25] = test system: BV-173; assay type: functional, cell-based, Homo sapiens; conditions: Homo sapiens, BV-173
Description: SANGER: Inhibition of human BV-173 cell growth in a cell viability assay.

[26] = test system: OCI-AML2; assay type: functional, cell-based, Homo sapiens; conditions: Homo sapiens, OCI-AML2;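 note: growth inhibition of OCI-AML2 cells, read out with a cell viability assay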
Description: SANGER: Inhibition of human OCI-AML2 cell growth in a cell viability assay.

[27] = test system: no-11; assay type: functional, cell-based, Homo sapiens; conditions: Homo sapiens;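 note: growth inhibition of human NO-11 cells, read out with a cell viability assay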
Description: SANGER: Inhibition of human no-11 cell growth in a cell viability assay.

[28] = test system: COLO-829; assay type: functional, cell-based, Homo sapiens; conditions: Homo sapiens, COLO-829
Description: SANGER: Inhibition of human COLO-829 cell growth in a cell viability assay.

[29] = test system: DB; assay type: functional, cell-based, Homo sapiens; conditions: Homo sapiens, DB
Description: SANGER: Inhibition of human DB cell growth in a cell viability assay.

[30] = test system: J-RT3-T3-5; assay type: functional, cell-based, Homo sapiens; conditions: Homo sapiens, J-RT3-T3-5;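 note: cell viability assay measuring growth inhibition of human J-RT3-T3-5 cells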
Description: SANGER: Inhibition of human J-RT3-T3-5 cell growth in a cell viability assay.

[31] = test system: RCC10RGB; assay type: functional, cell-based, Homo sapiens; conditions: Homo sapiens, RCC10RGB;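 note: growth inhibition of human RCC10RGB cells, read out by a cell viability assay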
Description: SANGER: Inhibition of human RCC10RGB cell growth in a cell viability assay.

[32] = test system: TE-6; assay type: functional, cell-based, Homo sapiens; conditions: Homo sapiens, TE-6;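 note: growth inhibition of TE-6 cells, read out with a cell viability assay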
Description: SANGER: Inhibition of human TE-6 cell growth in a cell viability assay.

[33] = test system: HCC2218; assay type: functional, cell-based, Homo sapiens; conditions: Homo sapiens, HCC2218;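 note: cell viability assay read-out, with IC50 given as the concentration that inhibits growth of the cell line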
Description: SANGER: Inhibition of human HCC2218 cell growth in a cell viability assay.

[34] = test system: SCC-15; assay type: functional, cell-based, Homo sapiens; conditions: Homo sapiens, SCC-15;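 note: growth inhibition of SCC-15 cells, read out with a cell viability assay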
Description: SANGER: Inhibition of human SCC-15 cell growth in a cell viability assay.

[35] = test system: MOLT-16; assay type: functional, cell-based, Homo sapiens; conditions: Homo sapiens, MOLT-16;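 note: growth inhibition of human MOLT-16 cells, read out with a cell viability assay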
Description: SANGER: Inhibition of human MOLT-16 cell growth in a cell viability assay.

[36] = test system: LOX IMVI; assay type: functional, cell-based, Homo sapiens; conditions: Homo sapiens, LOX IMVI
Description: SANGER: Inhibition of human LOXIMVI cell growth in a cell viability assay.

[37] = test system: ML-2; assay type: functional, cell-based, Homo sapiens; conditions: Homo sapiens, ML-2;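 note: growth inhibition of ML-2 cells, measured with a cell viability readout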
Description: SANGER: Inhibition of human ML-2 cell growth in a cell viability assay.

[38] = test system: LB771-HNC; assay type: functional, cell-based; conditions: Homo sapiens;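 note: growth inhibition of LB771-HNC human cells, read out with a cell viability assay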
Description: SANGER: Inhibition of human LB771-HNC cell growth in a cell viability assay.

[39] = test system: NCI-H720; assay type: functional, cell-based, Homo sapiens; conditions: Homo sapiens, NCI-H720;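 note: growth inhibition of human NCI-H720 cells determined by a cell viability assay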
Description: SANGER: Inhibition of human NCI-H720 cell growth in a cell viability assay.

[40] = test system: ETK-1; assay type: functional, cell-based, Homo sapiens; conditions: Homo sapiens, ETK-1;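 note: growth inhibition of human ETK-1 cells, read out with a cell viability assay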
Description: SANGER: Inhibition of human ETK-1 cell growth in a cell viability assay.

[41] = test system: EW-13; assay type: functional, cell-based, Homo sapiens; conditions: Homo sapiens, EW-13; read-out: IC50;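 note: growth inhibition of EW-13 cells, read out with a cell viability assay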
Description: SANGER: Inhibition of human EW-13 cell growth in a cell viability assay.

[42] = test system: NCI-H1395; assay type: functional, cell-based, Homo sapiens; conditions: Homo sapiens, NCI-H1395;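 note: cell viability assay read-out quantifying reduced proliferation of human NCI-H1395 cells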
Description: SANGER: Inhibition of human NCI-H1395 cell growth in a cell viability assay.

[43] = test system: HAL-01; assay type: functional, cell-based, Homo sapiens; conditions: Homo sapiens, HAL-01;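 note: growth inhibition of human HAL-01 cells, read out with a cell viability assay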
Description: SANGER: Inhibition of human HAL-01 cell growth in a cell viability assay.

[44] = test system: MV4-11; assay type: functional, cell-based, Homo sapiens, MV-4-11; conditions: Homo sapiens, MV4-11;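 note: cell viability readout measuring growth inhibition of human MV-4-11 cells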
Description: SANGER: Inhibition of human MV-4-11 cell growth in a cell viability assay.

[45] = test system: A704; assay type: functional, cell-based; conditions: Homo sapiens;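 note: growth inhibition of human A704 cells, read out with a cell viability assay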
Description: SANGER: Inhibition of human A704 cell growth in a cell viability assay.

[46] = test system: KU812 cell line; assay type: functional, cell-based, Homo sapiens; conditions: Homo sapiens, KU812;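 note: growth inhibition of KU812 cells, read out with a cell viability assay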
Description: SANGER: Inhibition of human KU812 cell growth in a cell viability assay.

[47] = test system: BB65-RCC; assay type: functional, cell-based, Homo sapiens; conditions: Homo sapiens, BB65-RCC;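 note: growth inhibition of the cell line, measured with a cell viability assay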
Description: SANGER: Inhibition of human BB65-RCC cell growth in a cell viability assay.

[48] = test system: KE-37; assay type: functional, cell-based, Homo sapiens; conditions: Homo sapiens, KE-37;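 note: growth inhibition of KE-37 cells, read out with a cell viability assay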
Description: SANGER: Inhibition of human KE-37 cell growth in a cell viability assay.

[49] = test system: GI-1; assay type: functional, cell-based, Homo sapiens; conditions: Homo sapiens, GI-1;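 note: growth inhibition of human GI-1 cells, measured with a cell viability readout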
Description: SANGER: Inhibition of human GI-1 cell growth in a cell viability assay.

## CC1=C(/C=C/C(C)=C/C=C/C(C)=C/C(=O)O)C(C)(C)CCC1 [TRETINOIN]
[1]
  IC50: > 10 µM
[2]
  IC50: > 10 µM
[3]
  IC50: > 10 µM
[4]
  IC50: 0.48 µM
[5]
  IC50: > 10 µM
[6]
  IC50: 9.61 µM
[7]
  IC50: > 10 µM
[8]
  IC50: > 10 µM
[9]
  IC50: 3.86 µM
[10]
  IC50: > 10 µM
[11]
  IC50: > 10 µM
[12]
  IC50: > 10 µM
[13]
  IC50: > 10 µM
[14]
  IC50: > 10 µM
[15]
  IC50: > 10 µM
[16]
  IC50: 0.662 µM
[17]
  IC50: > 10 µM
[18]
  IC50: > 10 µM
[19]
  IC50: > 10 µM
[20]
  IC50: 8.41 µM
[21]
  IC50: > 10 µM
[22]
  IC50: > 10 µM
[23]
  IC50: 2.07 µM
[24]
  IC50: > 10 µM
[25]
  IC50: 1.6 µM
[26]
  IC50: > 10 µM
[27]
  IC50: > 10 µM
[28]
  IC50: > 10 µM
[29]
  IC50: 4.77 µM
[30]
  IC50: > 10 µM
[31]
  IC50: > 10 µM
[32]
  IC50: > 10 µM
[33]
  IC50: > 10 µM
[34]
  IC50: 9.35 µM
[35]
  IC50: > 10 µM
[36]
  IC50: > 10 µM
[37]
  IC50: 4 µM
[38]
  IC50: > 10 µM
[39]
  IC50: 1.03 µM
[40]
  IC50: > 10 µM
[41]
  IC50: 7.61 µM
[42]
  IC50: > 10 µM
[43]
  IC50: > 10 µM
[44]
  IC50: 0.021 µM
[45]
  IC50: > 10 µM
[46]
  IC50: 0.536 µM
[47]
  IC50: > 10 µM
[48]
  IC50: > 10 µM
[49]
  IC50: > 10 µM
